Values quoted from earlier work, collected in patent US20220257614A1, “USE OF 12-LIPOXYGENASE INHIBITORS IN THE TREATMENT OF COVID-19” (New York Medical College, priority 2021, published 2022).

Tested on: human islets
Settings: in vitro; background statement

COc1cccc(CNc2ccc(S(=O)(=O)Nc3nc4ccccc4s3)cc2)c1O [ML-355]
protection of human islets from inflammatory injury: protect human islets from inflammatory injury
